Columns and labels:
[1] = tested on: AKT in JIMT-1 tumors; test: Phosphoprotein analysis of JIMT-1 tumors by Luminex; type: in vivo, mice
Method: Tumors were flash-frozen and processed to powder. Tumor lysates were prepared to a concentration of 50 mg tumor/mL using cold BioRad Lysis Buffer (supplemented with 0.4% BioRad Factor 1, 0.2% BioRad Factor 2, and 2 mM PMSF) to the frozen powder samples, incubated at 4° C. on a rocker for 60 minutes to ensure complete lysis. The samples were centrifuged at 4° C. for 10 minutes at 16000 × g, and aliquoted. Total protein was determined using the Biorad DC Protein Assay reagents according to manufacturer’s instructions. Luminex Assay: The JIMT-1 tumor lysate samples were processed and analyzed for: Total AKT AKT(Ser473) and AKT(Thr308using commercially available Luminex kits from Millipore (Cat # 48-618MAG (Lot No. 2532050), 46-645MAG (Lot No. 46645 M-1K). Each sample was tested in duplicate. Dilutions were prepared in sample diluent to load a target of approximately 25 µg protein per well for all total and phosphorylated analyte determinations. The Millipore kits were used according to the manufacturer’s specifications.

[2] = tested on: N87 cells; test: HRG driven N87 proliferation assay; type: cell-based, human
Method: Upregulation of NRG1-β1 is a key resistance mechanism against HER2 targeted therapies (Wilson, 2012). […] N87 cells were cultured in RPMI 1640 supplemented with 10% heat inactivated FBS. For the proliferation assay subconfluent cell cultures of N87 cells were washed with PBS trypsinized and trypsin was inactivated by adding culture medium. Cells were washed twice in large volumes of assay medium (RPMI 1640 medium containing 0.05% BSA and 10 µg/ml Holo Transferrin). Antibodies were diluted in a semi-log titration that varied from 1-0.0001 µg/ml. Cells were added at a density of 10000 cells/well in the presence of 100 ng/ml final concentration of HRG. The cells were cultivated for 3 days at 37° C., 5% CO2, in 95% relative humidity. ALAMAR BLUE™ (INVITROGEN®) was added according to the manufacturer’s instructions and incubated for 6 hours at 37° C., 5% CO2, in 95% relative humidity in the dark. Fluorescence was measured at 550 nm excitation with 590 nm emission wavelength.
Upregulation of NRG 1-β1 is a key resistance mechanism against HER2 targeted therapies (Wilson, 2012). […] To this aim N87 cells were cultured in RPMI 1640 supplemented with 10% heat inactivated FBS. […] Fluorescence was measured at 550 nm excitation with 590 nm emission wavelength.

[3] = tested on: SK-BR-3 and MCF-7 target cells; test: ADCC 51Cr release assay; type: cell-based, human; conditions: whole blood or PBMC effector cells
Method: ADCC activity is an important anti-tumour mechanism of action for therapeutic antibodies in cancer. […] Trastuzumab and a negative control antibody were included as control antibodies in the experiment. Whole blood and PBMC fractions were obtained from healthy donors. Each antibody was tested against the HER2 high (SK-BR-3) and HER2 low (MCF-7) expressing target cells. Target cells were loaded with ^51Cr (Amersham) and opsonized with the indicated concentrations of antibody. Whole-blood or PBMC fraction were used as effector cells in a 200 µL reaction in RPMI 1640 + 10% heat inactivated FCS. Cells were incubated together for 4 h, and lysis was estimated by measuring radioactivity in the supernatant using a Y^- scintillator. Percentage of specific lysis was calculated as follows: (experimental cpm – basal cpm) / (maximal cpm – basal cpm) × 100, with maximal lysis determined in the presence of 5% Triton X-100 and basal lysis in the absence of antibody and effectors.
ADCC activity can be enhanced by different techniques, one of them being the removal of fucose. […] Both antibodies were applied in a serial dilution and a negative control antibody and trastuzumab were included in the assay.

[4] = tested on: JIMT-1 tumor; test: JIMT-1 xenograft study; type: in vivo, CB.17 SCID mice; conditions: 2.5 and 25 mg/kg ip qwk × 4
Method: JIMT-1 human breast carcinoma cells were grown in DMEM containing 10% fetal bovine serum, 100 units/mL penicillin G sodium, 100 µg/mL streptomycin sulfate, 25 µg/mL gentamicin, and 2 mM glutamine until the time of implantation. At the day of implantation JIMT-1 breast cells were harvested during log phase growth and resuspended in cold PBS. […] Each mouse was injected subcutaneously in the right flank with 5 ×10^6 tumor cells (0.2 mL cell suspension). The tumors were measured with a caliper in two dimensions to monitor size as the mean volume twice per week. Once tumors had reached approximately 100-150 mm^3 in size animals were enrolled in the efficacy study. Outlier animals -tumor volume - were removed and the mice were randomly distributed into groups of 10 mice each. Mice were injected once weekly (antibody) or daily (lapatinib) for a period of four weeks. Details of the treatment groups are depicted in Table 11.
Tumor sizes were measured weekly by caliper measurement.

**Q.** What does the source list for “PB4188: bispecific HER2xHER3 IgG: HER2 arm MF3958, HER3 arm MF3178”?
**A.** Akt expression in tumors compared to untreated tumors ([1]; JIMT-1 tumors): increase in Akt expression; Phosphorylation of AKT in tumors ([1]; after two-weekly and four-weekly dose): completely inhibited; Anti-proliferative activity on N87 ([2]; 100 ng/ml HRG): superior activity over anti-HER2 or anti-HER3 monoclonal antibodies; Anti-proliferative activity on N87 versus PG3178 ([2]; increasing HRG 0.04-39.5 nM): superior activity compared to the parental anti-HER3 monoclonal antibody; ADCC activity [3]: effective at high antibody concentrations; Efficacy on tumor size [4]: more potent than lapatinib or the combination pertuzumab and trastuzumab

From patent US20230242669A1, “ANTIBODY THAT BINDS ERBB-2 AND ERBB-3” (Merus N.V., priority 2014, published 2023)
